Data taken from ChEMBL document CHEMBL2073942, “Localization of organic anion transport protein 2 in the apical region of rat retinal pigment epithelium” (Invest Ophthalmol Vis Sci, 2002).

Target: T1, Solute carrier organic anion transporter family member 1A4 (Rattus norvegicus, UniProt O35913)
T1 sequence (O35913 whole entry): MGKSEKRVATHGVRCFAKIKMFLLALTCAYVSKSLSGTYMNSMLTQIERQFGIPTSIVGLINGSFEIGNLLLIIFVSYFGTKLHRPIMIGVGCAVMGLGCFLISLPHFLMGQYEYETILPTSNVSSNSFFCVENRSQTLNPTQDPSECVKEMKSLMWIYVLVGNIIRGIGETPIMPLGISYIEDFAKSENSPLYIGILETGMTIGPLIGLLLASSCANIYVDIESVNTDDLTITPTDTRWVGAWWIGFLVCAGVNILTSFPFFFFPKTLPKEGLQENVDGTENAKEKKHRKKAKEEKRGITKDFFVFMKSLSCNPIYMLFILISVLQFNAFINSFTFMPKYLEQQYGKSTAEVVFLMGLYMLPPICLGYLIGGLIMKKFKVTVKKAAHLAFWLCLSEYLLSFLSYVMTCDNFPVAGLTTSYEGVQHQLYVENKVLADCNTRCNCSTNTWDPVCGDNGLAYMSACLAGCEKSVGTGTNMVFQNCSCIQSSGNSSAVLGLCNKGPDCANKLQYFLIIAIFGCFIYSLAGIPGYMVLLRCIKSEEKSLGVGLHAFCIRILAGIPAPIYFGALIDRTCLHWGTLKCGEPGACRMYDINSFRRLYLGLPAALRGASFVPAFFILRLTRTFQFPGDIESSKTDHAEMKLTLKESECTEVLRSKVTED
Assay: TP_TRANSPORTER: inhibition of Digoxin uptake in Xenopus laevis oocytes
Format: functional, cell-based, Oocyte

Ki: 37 µM
SMILES: CC1=C(/C=C/C(C)=C/C=C/C(C)=C/c2cc(/C=C/C=C(C)/C=C/C3=C(C)CCCC3(C)C)cc[n+]2CCO)C(C)(C)CCC1
